Assay results: PubChem BioAssay AID651977 (The Scripps Research Institute Molecular Screening Center, 2013)
Calls of active or inactive are those of the source. The rule behind the calls is not given here.

What follows are molecules tested against Steroidogenic factor 1 (Homo sapiens) (UniProt Q13285) (assay: dose-dependent inverse agonism at SF1 – cell-based, luminescence, dose response, selectivity assay for LRH-1 inverse agonist project, late-stage follow-up (AID 651977)). Conditions: SF1 cell-based luciferase reporter.
Sequence of Steroidogenic factor 1 (Homo sapiens) (Q13285 whole entry, looked up): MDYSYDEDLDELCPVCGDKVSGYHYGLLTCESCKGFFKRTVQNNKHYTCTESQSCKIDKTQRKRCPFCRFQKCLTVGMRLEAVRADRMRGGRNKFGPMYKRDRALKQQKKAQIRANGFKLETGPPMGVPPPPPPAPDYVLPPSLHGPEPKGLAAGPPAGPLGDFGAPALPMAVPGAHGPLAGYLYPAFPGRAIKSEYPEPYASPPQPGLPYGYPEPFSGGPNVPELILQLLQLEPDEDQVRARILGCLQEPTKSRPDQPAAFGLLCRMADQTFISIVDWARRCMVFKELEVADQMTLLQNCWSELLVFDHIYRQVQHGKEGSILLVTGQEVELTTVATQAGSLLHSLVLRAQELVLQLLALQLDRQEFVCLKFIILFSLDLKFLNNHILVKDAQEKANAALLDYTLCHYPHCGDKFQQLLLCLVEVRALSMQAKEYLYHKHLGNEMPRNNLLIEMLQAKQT

Compound	IC50
Cc1ccc(NC(=O)COC(=O)c2cc(=O)c3ccccc3o2)c(Br)c1	> 35.9 µM (inactive)
O=C(CSc1nnc(CNC(=O)c2ccccc2F)o1)Nc1ccc2c(c1)OCCO2	> 35.9 µM (inactive)
CCCc1cc(=O)oc2c(C)c(OCC(=O)NCCN3CCOCC3)ccc12	5.64 µM
COc1ccc(NC(=O)CSc2nnc3ccc(-c4cccnc4)nn23)cc1OC	1.59 µM
COc1ccc(CCNC(=O)CSc2nc3[nH]c(=O)cc(O)c3s2)cc1	> 35.9 µM (inactive)
N#CCSc1ccccc1NC(=O)CN1C(=O)C2CC=CCC2C1=O (centres undefined)	> 35.9 µM (inactive)
O=C(NCc1ccco1)c1nn(-c2ccccc2)c(=O)c2ccccc12	> 35.9 µM (inactive)
Cc1sc(NC(=O)C(C)C)c(C(=O)Nc2ccccc2)c1C	9.22 µM
CCCc1cc(=O)oc2cc(C)cc(OCC(=O)NC3CC3)c12	2.67 µM
CCCN(CC(=O)Nc1ccc(C(C)=O)cc1)CC(=O)Nc1ccccc1C	inactive
O=C(COC(=O)c1ccc[n+]([O-])c1)Nc1ccc([N+](=O)[O-])cc1Cl	> 35.9 µM (inactive)
Cc1ccc2cccc(OCC(=O)NCCC3=CCCCC3)c2n1	2.22 µM
COCC(=O)NC1CCN(CC(=O)Nc2ccc(OC)cc2[N+](=O)[O-])CC1	> 35.9 µM (inactive)
CCOc1ccc(OCCN2C(=O)NC(Cc3c[nH]c4ccccc34)C2=O)cc1 (centres undefined)	inactive
CCOc1ccc(NC(=O)CN2CCN(CC(=O)Nc3ccc(OC)cc3)CC2)cc1	> 35.9 µM (inactive)
COc1ccc(NC(=O)COC(=O)c2c(-c3ccccc3)noc2C)cc1	3.19 µM
COCCn1c(C)cc(/C=C(\C#N)C(=O)OCC(=O)Nc2ccc(S(N)(=O)=O)cc2)c1C	> 35.9 µM (inactive)
COc1ccc(NC(=O)COC(=O)c2cc(S(=O)(=O)N3CCCC3)ccc2O)cc1	> 35.9 µM (inactive)
COC(=O)c1ccc(NC(=O)CSc2nc3ncccc3[nH]2)cc1	> 35.9 µM (inactive)
Cc1cc(Br)ccc1NC(=O)CSc1nnc(CN2CCOCC2)n1C	> 35.9 µM (inactive)
COc1ccc(CCNC(=O)COC(=O)Cc2ccccc2[N+](=O)[O-])cc1	> 12 µM (inactive)
CCc1cc(=O)oc2c(C)c(OCC(=O)NCCN3CCOCC3)ccc12	inactive
CCOc1ccc(NC(=O)CSc2nnc(C(C)C)n2CC)cc1	> 35.9 µM (inactive)

Compound	IC50
Cc1cc(C)c2sc(NC(=O)c3ccc([N+](=O)[O-])o3)nc2c1	> 35.9 µM (inactive)
COc1ccc(NC(=O)CSc2ccc3c(c2)OCCO3)cc1	> 35.9 µM (inactive)
O=C(COC(=O)c1ccc(=O)n(Cc2ccccc2)n1)Nc1ccc2c(c1)OCCO2	> 35.9 µM (inactive)
Cc1cc(=O)oc2c(C)c(OCC(=O)NC3CC(C)(C)NC(C)(C)C3)ccc12	> 35.9 µM (inactive)
CCOc1ccc(NC(=O)COC(=O)CC2CCCCC2)cc1	> 35.9 µM (inactive)
COc1ccc(CCNC(=O)COC(=O)c2cc(Cl)nc(Cl)c2)cc1	> 35.9 µM (inactive)
COC(=O)c1ccc(NC(=O)CN2CCN(c3ccc(Cl)cc3)CC2)cc1	> 35.9 µM (inactive)
CCc1c(C)nc(SCC(=O)Nc2ccc3c(c2)OCCO3)[nH]c1=O	7.83 µM
CCOc1ccc(NC(=O)COC(=O)COc2cccc3c2OC(C)(C)C3)cc1	> 35.9 µM (inactive)
COc1ccc(NC(=O)CSc2nc(N)c(-c3ccccc3)c(=O)[nH]2)cc1	9.92 µM
COc1ccc(CCNC(=O)CSc2nn3c(=O)c(C)nnc3s2)cc1OC	5.7 µM
CCOc1ccc(NC(=O)CSc2nncc(=O)n2N)cc1	> 35.9 µM (inactive)
NC(=O)C1CCN(C(=O)COc2ccc3c4c(c(=O)oc3c2)CCCC4)CC1	> 35.9 µM (inactive)
Cc1ccc(NC(=O)CSc2sc3c(O)cc(=O)[nH]c3c2C#N)c(F)c1	> 35.9 µM (inactive)
COC(=O)c1ccc(NC(=O)CSc2ccc(-c3ccccn3)nn2)cc1	> 35.9 µM (inactive)
COC(=O)c1ccc(NC(=O)CSc2nn3c(=O)c(C)nnc3s2)cc1	> 35.9 µM (inactive)
Cc1nn(CC(=O)Nc2ccc3c(c2)OCCO3)c(C)c1[N+](=O)[O-]	> 35.9 µM (inactive)
O=C(Nc1nc2c(Cl)cccc2s1)c1ccc([N+](=O)[O-])o1	> 12 µM (inactive)
O=C(CSc1nc(=O)n2cc(Cl)ccc2n1)Nc1ccc2c(c1)OCCO2	inactive
COC(=O)c1ccc(NC(=O)CSc2nncn2-c2cccnc2)cc1	> 35.9 µM (inactive)
O=C(Nc1ccc(Br)cn1)c1ccc([N+](=O)[O-])o1	> 35.9 µM (inactive)
Cc1ccc(NC(=O)CSc2nc3[nH]c(=O)cc(O)c3s2)c(Br)c1	> 35.9 µM (inactive)
CC(=O)c1ccc(NC(=O)C(C)O/N=C(\N)c2ccccc2)cc1 (centres undefined)	inactive

Compound	IC50
COc1ccc(C2(C)NC(=O)N(CC(=O)NCCC3=CCCCC3)C2=O)cc1OC (centres undefined)	> 12 µM (inactive)
CCc1cc(=O)[nH]c(SCC(=O)Nc2ccc3c(c2)OCCO3)n1	> 35.9 µM (inactive)
CCOc1ccc(OCCC(=O)OCC(=O)Nc2ccc3c(c2)OCCO3)cc1	> 35.9 µM (inactive)
CC(=O)Nc1ncc(Cc2cc(Cl)ccc2Cl)s1	inactive
COc1ccc(CCNC(=O)COC(=O)C23CC4CC(CC(C4)C2)C3)cc1	4.42 µM
O=C(COc1ccc2c3c(c(=O)oc2c1)CCC3)NCc1ccncc1	> 35.9 µM (inactive)
Cc1cc(C)c2nc(NC(=O)c3ccc([N+](=O)[O-])o3)sc2c1	> 35.9 µM (inactive)
Cc1ccc(NC(=O)COC(=O)C(NS(=O)(=O)c2ccc(Cl)cc2)C(C)O)cc1C (centres undefined)	2.28 µM
Cc1cccc(NC(=O)COC(=O)Cc2cccs2)c1C	> 35.9 µM (inactive)
CC(=O)Nc1ccc(N=c2cc([N+](=O)[O-])cc(Cl)n2O)cc1	> 12 µM (inactive)
Cc1ccc(NC(=O)COC(=O)C(NS(=O)(=O)c2ccc(Cl)cc2)C(C)O)c(Br)c1 (centres undefined)	> 35.9 µM (inactive)
CCOc1ccc(NC(=O)COC(=O)c2ccc3c(c2)OCCO3)cc1	> 12 µM (inactive)
O=C1CCCN2N=C(SCC(=O)Nc3ccc(Br)cc3)SC2=N1	> 35.9 µM (inactive)
O=C(OCC(=O)N1CCN(C(=O)COC(=O)c2ccc(O)cc2O)CC1)c1ccc(O)cc1O	3.55 µM
COc1ccc(NS(=O)(=O)c2ccc(OCC(=O)N3CCN(C)CC3)cc2)cc1Cl	9.99 µM
O=C(Nc1ccccc1)c1oc2ccccc2c1NC(=O)C1CC1	inactive
O=C(CSc1nnc(CNC(=O)c2c(F)cccc2F)o1)Nc1ccc2c(c1)OCCO2	inactive
Cc1cc(OCC(=O)Nc2nccs2)c2c(C)cc(=O)oc2c1	> 35.9 µM (inactive)
CCOc1ccc(NC(=O)CSc2nc3[nH]ncc3c(=O)[nH]2)cc1	> 35.9 µM (inactive)
O=C(COc1ccc2c3c(c(=O)oc2c1)CCCC3)NCc1ccccn1	> 35.9 µM (inactive)
COc1ccc(NC(=O)CSc2sc3c(O)cc(=O)[nH]c3c2C#N)c(OC)c1	> 35.9 µM (inactive)
Cc1ccc(-c2csc(NC(=O)c3ccc([N+](=O)[O-])o3)n2)cc1	> 35.9 µM (inactive)
Cc1ccn2c(=O)nc(SCC(=O)Nc3ccc4c(c3)OCCO4)nc2c1	> 35.9 µM (inactive)

Compound	IC50
Cc1cc(Br)ccc1NC(=O)CN1C(=O)C2CC=CCC2C1=O (centres undefined)	0.351 µM
COC(=O)c1ccc(NC(=O)COc2cccc(-n3cnnn3)c2)cc1	> 12 µM (inactive)
CCn1c(SCC(=O)Nc2ccc(Cl)cc2)nnc1C1CC1	> 35.9 µM (inactive)
O=c1[nH]c(Nc2ccc3c(c2)OCCO3)nnc1Cc1ccccc1	> 12 µM (inactive)
CC1SC(C)C(=O)N(CC(=O)Nc2ccc3c(c2)OCO3)C1=O (centres undefined)	> 35.9 µM (inactive)
COc1ccc(CCNC(=O)CSc2ccc(NC(C)=O)cc2)cc1OC	8.79 µM
O=C(COC(=O)CCN1C(=O)C2CC=CCC2C1=O)NCCc1ccc(F)cc1 (centres undefined)	> 35.9 µM (inactive)
O=C(NCC1CCCO1)c1ccc(NC(=O)c2cccc([N+](=O)[O-])c2)cc1 (centres undefined)	1.02 µM
CCCc1nnc(SCC(=O)Nc2ccc(C(=O)OCC)cc2)o1	> 35.9 µM (inactive)
CCCc1cc(=O)oc2c(C)c(OCC(=O)NCCCn3ccnc3)ccc12	6.68 µM
COc1ccc(CCNC(=O)COC(=O)c2cccn2C)cc1	> 35.9 µM (inactive)
COc1ccccc1Oc1nnnn1-c1ccc(C(N)=O)cc1	inactive
Cc1cccc(NC(=O)COC(=O)CN2C(=O)c3ccccc3C2=O)c1C	> 35.9 µM (inactive)
O=C(Nc1ccc(S(=O)(=O)N2CCOCC2)cc1)c1cccc([N+](=O)[O-])c1	> 12 µM (inactive)
COc1ccc(-n2c(N)c(C(=O)NCc3cccnc3)sc2=S)cc1	> 35.9 µM (inactive)
CCCc1cc(=O)oc2cc(OCC(=O)NCc3ccccn3)ccc12	> 35.9 µM (inactive)
CCCc1cc(=O)oc2cc(OCC(=O)NCCc3ccc(S(N)(=O)=O)cc3)ccc12	inactive
COC(=O)c1ccc(CNC(=O)COC(=O)c2cc(Cl)nc(Cl)c2)cc1	inactive
CC(=O)c1ccc(OC(C)C(=O)OCC(=O)NCCc2ccccc2)cc1 (centres undefined)	> 35.9 µM (inactive)
COc1ccc(NC(=O)CN2C(=O)NC3(CCCC3)C2=O)cc1	> 35.9 µM (inactive)
